US4260603A, “Sterol glycoside with activity as prostaglandin synthetase inhibitor” (priority 1979, dated 1981)
In brackets after ≈: the same amount, converted by molar mass.

Experiments:
[1] = system: arthritis of rats caused by erysipeloid (strain T 28); test: Erysipeloid arthritis of rats, evaluation of aorta thrombes; assay type: in vivo, Male wistar rats; conditions: 5 mg/kg i.p., 5 times per week from infection day; comparison group 2.80
Excerpt: When comparing arthritis based on experimental erysipeloid of for example rats with human rheumatic arthritis an extensive correspondence of the morphological changes can be observed. The tests had been made according to the publication of Schulz et al. Beitr. Path. 154, 1-26, 27-51 (1975). The arthritis of rats caused by erysipeloid can be reproduced with nearly 100 percent effectiveness with a single injection. In case of arthritis caused by erysipeloid always more than 6 joints of the limbs are transformed, namely big and small joints of the limbs in the same manner.
In the test of the compounds the following parameters of the manifestation phase had been used for estimating the activity of the compound.
With rats fibrine-rich thrombes occur about 6th to 11th day of the intima of the aorta. The largest space covered is about 8th day.
Male wistar rats with a body weight of 150 to 180 g were used for the tests. The animals had been kept in single cages and got a rat standard diet (Ssniff R) and water ad libitum.
The infection was carried out with the erysipeloid strain T 28. The dosage was 2 ml s.c. (about 100-200 millions germs). The compounds to be tested had been suspended in sterile saline solution and had been injected i.p. in a dosage of 5 mg/kg body weight. The treatment was 5 times per week from infection day to end of test or death of animal.

physchem = assay type: physicochemical; conditions: water
Excerpt: According to the described process there can also be produced solutions of other sterol disaccharides. […] This solubility is above the preferred individual doses employed of the compounds.

[2] = Acute toxicity by oral administration; assay type: in vivo, rate, mice rabbits, dogs and primates; conditions: doses of 1 to 2 grams/kg of body weight
[3] = Toxicity on administration over a long period of time; assay type: in vivo, rate, mice rabbits, dogs and primates; conditions: daily doses of 100 to 200 mg/kg of body weight over a long period of time

Question: For `C[C@@H]1CC[C@@]2(OC1)O[C@H]1C[C@H]3[C@@H]4CC=C5C[C@@H](O[C@@H]6O[C@H](CO)[C@@H](O)[C@H](O)[C@H]6O)CC[C@]5(C)[C@H]4CC[C@]3(C)[C@H]1[C@@H]2C` [diosgeninglucoside, diosgenin-3-β-D-Glucoside], which “evaluation of aorta thrombes (value)” value [1] is on record?
Answer: Its value is 1.33.

Question: For `CC[C@H](CC[C@@H](C)[C@H]1CC[C@H]2[C@@H]3CC=C4C[C@@H](O[C@@H]5O[C@H](CO)[C@@H](O[C@@H]6O[C@H](CO)[C@H](O)[C@H](O)[C@H]6O)[C@H](O)[C@H]5O)CC[C@]4(C)[C@H]3CC[C@]12C)C(C)C` [β-D-lactoside of sitosterol], which solubility (physchem) is on record?
Answer: Its solubility is 210 µg/mL (≈ 284 µM).

Question: For `C[C@@H]1CC[C@@]2(OC1)O[C@H]1C[C@H]3[C@@H]4CC[C@H]5C[C@@H](O[C@@H]6O[C@H](CO)[C@@H](O)[C@H](O)[C@H]6O)CC[C@]5(C)[C@H]4CC(=O)[C@]3(C)[C@H]1[C@@H]2C` [hecogeninglucoside, hecogenin β-D-glucoside], which “evaluation of aorta thrombes (value)” value [1] is on record?
Answer: The value was 1.38.

Question: For `CC[C@H](CC[C@@H](C)[C@H]1CC[C@H]2[C@@H]3CC=C4C[C@@H](O[C@@H]5O[C@H](CO)[C@@H](O[C@@H]6O[C@H](CO)[C@@H](O)[C@H](O)[C@H]6O)[C@H](O)[C@H]5O)CC[C@]4(C)[C@H]3CC[C@]12C)C(C)C` [β-D-cellobioside of sitosterol], which solubility (physchem) is on record?
Answer: The solubility was 750 µg/mL (≈ 1010 µM).

Question: Which acute toxicity [2] does the source give for `CC[C@H](CC[C@@H](C)[C@H]1CC[C@H]2[C@@H]3CC=C4C[C@@H](O[C@@H]5O[C@H](CO)[C@@H](O)[C@H](O)[C@H]5O)CC[C@]4(C)[C@H]3CC[C@]12C)C(C)C` [sitosterol-β-D-glucoside, Sitosterol-β-D-Glucoside] here?
Answer: Its acute toxicity is “no toxic effects”.

Question: What about the tolerance [3] of the same molecule?
Answer: Its tolerance is “good”.

Question: And the “evaluation of aorta thrombes (value)” value [1]?
Answer: The value was 2.00.
